Results from patent US8476029B2, “MCPP immunoassay” (priority 2009, dated 2013).
Converted amounts (≈) assume the structure as drawn. “And” between values parts separate entries of the source, which are not always exact repeats. Equal entries are not always repeated. Where two headings read alike, the source gives them in different places.

Key:
[1] = tested on: Generic antibody (antibody raised from the mCPP-derived immunogen); format: binding, sheep; details: for % CR (percentage cross-reactivity): based on Nefazodone (100%); for IC50 (standard concentration which produces 50% B/B0): generic antibody
Experimental: (§1) The resulting immunogens were administered separately to adult sheep on a monthly basis to provide target-specific polyclonal antisera. IgG was extracted from the antisera via caprylic acid/ammonium sulphate precipitation of immunoglobulin. Microtitre plates (Thermo Scientific, 95029180) were coated with antibody (125 μl) in coating buffer (10 mM Tris pH 8.5) at 37° C. for 2 hours. […] The plates were then washed. […] The plates were then washed and 125 μl of TMB (Randox, 4380-15) was added to each well and left at room temperature for 20 minutes in the dark. The reaction was stopped using 125 μl of 0.2M sulphuric acid. The absorbances were then read at 450 nm with an ELISA microplate reader (BIO-TEK Instruments, EL340) and the means calculated. Antibody specificity and sensitivity were then determined.

[2] = tested on: Trazodone antibody (antibody raised from the trazodone-derived immunogen); format: binding, sheep; details: for % CR (percentage cross-reactivity): based on Trazodone (100%)
Experimental: as §1

[3] = humans, urine; cited from earlier work

Structure (SMILES): CCc1nn(CCCN2CCN(c3cccc(Cl)c3)CC2)c(=O)n1CCOc1ccccc1 [Nefazodone]
- % CR (percentage cross-reactivity) [1]: 100%
- IC50 (standard concentration which produces 50% B/B0) [1]: 3.901 ng/mL (≈ 0.0083 µM)
- % B/B0 ([1]; standard conc 0.156 ng/ml): 91%
- % B/B0 ([1]; standard conc 0.313 ng/ml): 83%
- % B/B0 ([1]; standard conc 0.625 ng/ml): 73%
- % B/B0 ([1]; standard conc 1.250 ng/ml): 58%
- % B/B0 ([1]; standard conc 2.500 ng/ml): 46%
- % B/B0 ([1]; standard conc 5.000 ng/ml): 34%
- % B/B0 ([1]; standard conc 10.000 ng/ml): 24%
- A450 (absorbance at 450 nm) [2]: 1.621 and 1.677 and 1.663 and 1.765 and 1.799 and 1.631 and 1.656
- % CR (percentage cross-reactivity) [2]: 1.38%
- % B/B0 ([2]; standard conc 0.156 ng/ml): 97%
- % B/B0 ([2]; standard conc 0.313 ng/ml): 99%
- % B/B0 ([2]; standard conc 0.625 ng/ml): 97%
- % B/B0 ([2]; standard conc 1.250 ng/ml): 100%
- % B/B0 ([2]; standard conc 2.500 ng/ml): 99%
- % B/B0 ([2]; standard conc 5.000 ng/ml): 105%
- % B/B0 ([2]; standard conc 10.000 ng/ml): 107%
- mCPP as share of total metabolites (minor urinary metabolite of nefazodone) [3]: less than 1%

Structure (SMILES): O=c1n(CCCN2CCN(c3cccc(Cl)c3)CC2)nc2ccccn12 [Trazodone, 2-(3-[4-(3-chlorophenyl)piperazin-1-yl]propyl)-[1,2,4]triazolo[4,3-α]pyridin-3(2H)-one]
- % CR (percentage cross-reactivity) [1]: 733%
- % B/B0 ([1]; standard conc 0.156 ng/ml): 67%
- A450 (absorbance at 450 nm) ([1]; standard conc 0.156 ng/ml): 1.456
- % B/B0 ([1]; standard conc 0.313 ng/ml): 58%
- A450 (absorbance at 450 nm) ([1]; standard conc 0.313 ng/ml): 1.271
- % B/B0 ([1]; standard conc 0.625 ng/ml): 48%
- A450 (absorbance at 450 nm) ([1]; standard conc 0.625 ng/ml): 1.041
- % B/B0 ([1]; standard conc 1.250 ng/ml): 35%
- A450 (absorbance at 450 nm) ([1]; standard conc 1.250 ng/ml): 0.763
- % B/B0 ([1]; standard conc 2.500 ng/ml): 25%
- A450 (absorbance at 450 nm) ([1]; standard conc 2.500 ng/ml): 0.551
- % B/B0 ([1]; standard conc 5.000 ng/ml): 18%
- A450 (absorbance at 450 nm) ([1]; standard conc 5.000 ng/ml): 0.398
- % B/B0 ([1]; standard conc 10.000 ng/ml): 13%
- A450 (absorbance at 450 nm) ([1]; standard conc 10.000 ng/ml): 0.287
- % CR (percentage cross-reactivity) [2]: 100%
- % B/B0 ([2]; standard conc 0.156 ng/ml): 47%
- A450 (absorbance at 450 nm) ([2]; standard conc 0.156 ng/ml): 0.816
- % B/B0 ([2]; standard conc 0.313 ng/ml): 33%
- A450 (absorbance at 450 nm) ([2]; standard conc 0.313 ng/ml): 0.570
- % B/B0 ([2]; standard conc 0.625 ng/ml): 21%
- A450 (absorbance at 450 nm) ([2]; standard conc 0.625 ng/ml): 0.375
- % B/B0 ([2]; standard conc 1.250 ng/ml): 14%
- A450 (absorbance at 450 nm) ([2]; standard conc 1.250 ng/ml): 0.237
- % B/B0 ([2]; standard conc 2.500 ng/ml): 9%
- A450 (absorbance at 450 nm) ([2]; standard conc 2.500 ng/ml): 0.151
- % B/B0 ([2]; standard conc 5.000 ng/ml): 5%
- A450 (absorbance at 450 nm) ([2]; standard conc 5.000 ng/ml): 0.093
- % B/B0 ([2]; standard conc 10.000 ng/ml): 3%
- A450 (absorbance at 450 nm) ([2]; standard conc 10.000 ng/ml): 0.057

Structure (SMILES): Clc1cccc(N2CCNCC2)c1 [mCPP, 1-(3-chlorophenyl)piperazine]
- % CR (percentage cross-reactivity) [1]: 46%
- IC50 (standard concentration which produces 50% B/B0) [1]: 8.476 ng/mL (≈ 0.0431 µM)
- % B/B0 ([1]; standard conc 0.156 ng/ml): 85%
- A450 (absorbance at 450 nm) ([1]; standard conc 0.156 ng/ml): 1.821
- % B/B0 ([1]; standard conc 0.313 ng/ml): 79%
- A450 (absorbance at 450 nm) ([1]; standard conc 0.313 ng/ml): 1.679
- % B/B0 ([1]; standard conc 0.625 ng/ml): 72%
- A450 (absorbance at 450 nm) ([1]; standard conc 0.625 ng/ml): 1.534
- % B/B0 ([1]; standard conc 1.250 ng/ml): 65%
- A450 (absorbance at 450 nm) ([1]; standard conc 1.250 ng/ml): 1.380
- % B/B0 ([1]; standard conc 2.500 ng/ml): 55%
- A450 (absorbance at 450 nm) ([1]; standard conc 2.500 ng/ml): 1.183
- % B/B0 ([1]; standard conc 5.000 ng/ml): 48%
- A450 (absorbance at 450 nm) ([1]; standard conc 5.000 ng/ml): 1.027
- % B/B0 ([1]; standard conc 10.000 ng/ml): 42%
- A450 (absorbance at 450 nm) ([1]; standard conc 10.000 ng/ml): 0.888
- % CR (percentage cross-reactivity) [2]: 0.68%
- % B/B0 ([2]; standard conc 0.156 ng/ml): 98%
- A450 (absorbance at 450 nm) ([2]; standard conc 0.156 ng/ml): 1.721
- % B/B0 ([2]; standard conc 0.313 ng/ml): 100%
- A450 (absorbance at 450 nm) ([2]; standard conc 0.313 ng/ml): 1.755
- % B/B0 ([2]; standard conc 0.625 ng/ml): 100%
- A450 (absorbance at 450 nm) ([2]; standard conc 0.625 ng/ml): 1.756
- % B/B0 ([2]; standard conc 1.250 ng/ml): 100%
- A450 (absorbance at 450 nm) ([2]; standard conc 1.250 ng/ml): 1.759
- % B/B0 ([2]; standard conc 2.500 ng/ml): 101%
- A450 (absorbance at 450 nm) ([2]; standard conc 2.500 ng/ml): 1.782
- % B/B0 ([2]; standard conc 5.000 ng/ml): 103%
- A450 (absorbance at 450 nm) ([2]; standard conc 5.000 ng/ml): 1.814
- % B/B0 ([2]; standard conc 10.000 ng/ml): 106%
- A450 (absorbance at 450 nm) ([2]; standard conc 10.000 ng/ml): 1.857
